Test results: EP2832347B1, “Method for identifying patchouli odorant materials” (Takasago International Corporation, priority 2013, dated 2015)

What was measured:
OR11L1 = molecular target: T1, OR11L1 (Homo sapiens, UniProt Q8NGX0); test: CRE-luciferase reporter assay in HEKOlf cells transiently transfected with OR11L1; type: cell-based; conditions: Example 3; 10/30/100 µM
T1 construct: expressed in transfected cells; host or cells: HEKOlf (HEK293 stably expressing human Galpha-olf and bovine CNGA2)
T1 sequence (Q8NGX0 1-322): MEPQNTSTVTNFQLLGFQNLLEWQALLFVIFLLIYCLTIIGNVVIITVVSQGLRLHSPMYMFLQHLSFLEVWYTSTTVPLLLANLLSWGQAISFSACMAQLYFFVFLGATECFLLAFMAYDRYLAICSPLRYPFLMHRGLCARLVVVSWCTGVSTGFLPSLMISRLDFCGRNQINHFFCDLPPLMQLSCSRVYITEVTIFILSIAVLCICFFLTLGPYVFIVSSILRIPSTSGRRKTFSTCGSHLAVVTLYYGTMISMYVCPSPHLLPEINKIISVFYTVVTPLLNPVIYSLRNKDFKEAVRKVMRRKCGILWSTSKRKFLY
Method: (§1) The experiments were performed using a HEK293 cell line (deposited at the ATCC under accession n° CRL-1573) stably expressing the Gαolf G-protein and the cyclic nucleotide gated ion channel A2 subunit (CNGA2) (herein called HEKOlf). As described by Shirokova et al., 2005, the human Gαolf cDNA was cloned into the mammalian expression vector pPuro and cDNA for the bovine cyclic nucleotide gated ion channel A2 (CNGA2) subunit was cloned into the mammalian expression vector pcDNA3. Both constructs were transfected using Lipofectamine2000 (Invitrogen) following the manufacturer's instructions. Cellular clones stably expressing Gαolf and CNGA2 were obtained by antibiotic selection with 0.5µg/ml Puromycin and 200µg/ml Geneticin.
All odorants were stored in the dark at 4°C upon delivery. […]
In this assay, the interaction of an odorant with its cognate olfactory receptor leads to the activation of the human Gαolf G-protein. […] The cells were then transferred into an automated fluorometric imaging plate reader (FLIPR^TETRA, Molecular Devices). […]
(§2) The data obtained from different well replicates were analyzed with Excel, ScreenWorks, and SigmaPlot 10. […] The mean and standard deviation of the resulting fold of change values were calculated and plotted in vertical bar charts or concentration-response curves fitted by the SigmaPlot 10 software. […]

[1] = system: seven other OR11A1-related olfactory receptors; test: CRE-luciferase reporter assay on OR11A1 related receptors; type: cell-based, human; conditions: 10/30/100 µM
Method: as §1
(§3) All transient transfections were performed with Lipofectamine 2000 (Invitrogen) according to the manufacturer's protocol. 10µl Lipofectamine 2000 were diluted in 500 µl DMEM and incubated for 5 minutes at room temperature. At the same time, 3µg of plasmid DNA were diluted in 500µl DMEM and added to the Lipofectamine 2000 mix to obtain a final volume of 1000µl. After incubation for a further 30 minutes at room temperature, the DNA-Lipofectamine complex was added to 1000µl of a cell suspension containing 1.600.000 cells/ml. Subsequently, 25µl per well of the complete mixture were seeded in black 384 well polystyrene assay plates. 25µl DMEM containing 20% FBS were added to each well 3 hours post-transfection.
(§4) The cDNAs for all olfactory receptors and an empty control vector were co-transfected with pGL4.29 (Promega). The pGL4.29 vector contains a cyclic adenosine monophosphate (cAMP) response element (CRE) that drives the transcription of the luciferase reporter gene luc2P (Photinus pyralis). luc2P is a synthetically-derived luciferase sequence with humanized codon optimization that is designed for high expression and reduced anomalous transcription.
In this assay, the interaction of an odorant with its cognate olfactory receptor leads to the activation of the human Gαolf G-protein. Gαolf is a stimulatory G-protein (Gαs) and activates adenylate cyclase, which converts adenosine triphosphate (ATP) into cAMP. Therefore, the activity of the transcribed luciferase can be used as an indication of olfactory receptor activation. […] The cells were then transferred into an automated fluorometric imaging plate reader (FLIPR^TETRA, Molecular Devices). […]
as §2

OR11A1 = molecular target: T2, OR11A1 (Homo sapiens, UniProt Q9GZK7); test: CRE-luciferase reporter assay in HEKOlf cells transiently transfected with OR11A1; type: cell-based
T2 construct: expressed in transfected cells; host or cells: HEKOlf (HEK293 stably expressing human Galpha-olf and bovine CNGA2)
T2 sequence (Q9GZK7 1-315): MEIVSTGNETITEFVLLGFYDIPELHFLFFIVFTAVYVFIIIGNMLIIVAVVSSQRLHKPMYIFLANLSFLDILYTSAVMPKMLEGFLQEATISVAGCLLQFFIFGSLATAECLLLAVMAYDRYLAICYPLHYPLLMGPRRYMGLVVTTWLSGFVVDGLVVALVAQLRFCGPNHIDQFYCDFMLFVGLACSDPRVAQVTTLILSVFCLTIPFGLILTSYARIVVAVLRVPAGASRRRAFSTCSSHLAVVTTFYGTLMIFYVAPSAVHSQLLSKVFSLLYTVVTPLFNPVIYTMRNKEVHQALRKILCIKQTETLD
Method: as §1
All odorants were stored in the dark at 4°C upon delivery. They were prepared at 100mM stock solutions using DMSO as a solvent and stored at -20°C. On the day of the experiment the different stock solutions were directly diluted in the assay buffer (Tyrode's buffer) having the following composition: 5mM KCI, 130mM NaCl, 2mM CaCl2, 5mM NaHCO3, 1mM MgCl2, 20mM HEPES, pH7.4.
as §3, §4
In this assay, the interaction of an odorant with its cognate olfactory receptor leads to the activation of the human Gαolf G-protein. Gαolf is a stimulatory G-protein (Gαs) and activates adenylate cyclase, which converts adenosine triphosphate (ATP) into cAMP. Therefore, the activity of the transcribed luciferase can be used as an indication of olfactory receptor activation. 24 hours post-transfection the medium was removed from the transfected cells and 30 µl Tyrode's buffer containing the diluted odorants were added and incubated for 6 hours at 37°C. The cells were then transferred into an automated fluorometric imaging plate reader (FLIPR^TETRA, Molecular Devices). Subsequently, 25µl of a mixture composed of Triton X-100 and luciferin (1:1) were added. The addition of this mixture led to cell lyses and allowed interaction of the luciferase with its substrate luciferin resulting in a detectable emission of light.
The data obtained from different well replicates were analyzed with Excel, ScreenWorks, and SigmaPlot 10. The responses of each receptor to the odorants were divided by the mean responses of the receptor towards Tyrode's buffer (fold of change FOC1). The specificity of FOC1 was checked by comparing with a second FOC (FOC2) obtained by stimulating a control sample, consisting in an empty expression vector, with the same odorants and Tyrode's buffer. The mean and standard deviation of the resulting fold of change values were calculated and plotted in vertical bar charts or concentration-response curves fitted by the SigmaPlot 10 software.

C[C@H]1CC[C@@]2(O)C(C)(C)[C@@H]3CC[C@@]2(C)[C@H]1C3 [Patchouli alcohol]
response in cells transfected with OR11L1 (OR11L1): unable to elicit a detectable response | fold of change ([1]; Example 3, figure 4): around 1 | response of seven other OR11A1-related olfactory receptors ([1]; Example 3): none of the seven other OR11A1-related olfactory receptors responded | activation of OR11A1 (OR11A1; Example 3, 10/30/100 µM): strongly activated | EC50 (OR11A1; Example 4, Table 5, 0.03-100 µM tested): 12.1 ± 1.7 µM | Potency and efficacy on OR11A1 (comparison between odorants) (OR11A1; Example 4, 0.1 to 100 µM (Figure 6)): comparable | activation of OR11A1 (OR11A1; Example 4, 3, 10 and 30 µM (Figure 5)): activated
